Legend:
HSC2 [1] = assay: relative IC50 (inflection point of fitted dose-response curve, CellTox-Green cytotoxicity, 72 h; top asymptote may be below 50%); higher = less potent
How it was run: (§1)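 MPNST cell lines and primary human Schwann cells were incubated 72 h at 37 °C in 384-well plates holding five 10-fold compound dilutions. CellTox-Green was added before seeding at a final 1:1000 dilution and reported fluorescence from DNA released by disrupted cells. Signals were scaled to vehicle and positive-control wells, and cultures failing plate quality control were dropped. Drug sensitivity score and relative IC50 come from four-parameter logistic fits, with IC50 censored at the top concentration.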

ST8814 [2] = assay: as above
How it was run: as §1

S1507-2 [3] = assay: as above
How it was run: as §1

HSC1 [4] = assay: as above
How it was run: as §1

STS26T [5] = assay: as above
How it was run: as §1

HS-PSS [6] = assay: as above
How it was run: as §1

HSC2 [7] = assay: relative IC50 (inflection point of fitted dose-response curve, CellTiter-Glo viability, 72 h; top asymptote may be below 50% inhibition); higher = less potent
How it was run: (§2)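 MPNST cell lines and primary human Schwann cells (750–1000 cells per well) went into 384-well plates preprinted with each compound at five concentrations in 10-fold steps. Plates were incubated 72 h at 37 °C, 5% CO2. Viability was read as CellTiter-Glo ATP luminescence, scaled between vehicle and positive-control wells, with duplicates averaged where present. Percent inhibition is at the top concentration; drug sensitivity score and relative IC50 (censored at top concentration) come from four-parameter logistic fits.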

ST8814 [8] = assay: as above
How it was run: as §2

S462 = assay: as above
How it was run: as §2

HS-Sch-2 = assay: as above
How it was run: as §2

S1507-2 [9] = assay: as above
How it was run: as §2

HSC1 [10] = assay: as above
How it was run: as §2

STS26T [11] = assay: as above
How it was run: as §2

HS-PSS [12] = assay: as above
How it was run: as §2

YST-1 = assay: as above
How it was run: as §2

## CC1(COc2ccc3c(c2)ncn3-c2ccc3cccc(N4CCC(N)CC4)c3n2)COC1 [Crenolanib]
HSC2 [1]
  relative IC50: 3310 nM
ST8814 [2]
  relative IC50: 1980 nM
S1507-2 [3]
  relative IC50: 1950 nM
HSC1 [4]
  relative IC50: 2930 nM
STS26T [5]
  relative IC50: 3240 nM
HS-PSS [6]
  relative IC50: 3150 nM
HSC2 [7]
  relative IC50: 2430 nM
ST8814 [8]
  relative IC50: 1750 nM
S462
  relative IC50: 3270 nM
HS-Sch-2
  relative IC50: 1250 nM
S1507-2 [9]
  relative IC50: 2280 nM
HSC1 [10]
  relative IC50: 2670 nM
STS26T [11]
  relative IC50: 2710 nM
HS-PSS [12]
  relative IC50: 3640 nM
YST-1
  relative IC50: 3310 nM

## O=C(/C=C/c1cccnc1)NCCCCC1CCN(C(=O)c2ccccc2)CC1 [Daporinad]
HSC2 [1]
  relative IC50: > 1000 nM
ST8814 [2]
  relative IC50: > 1000 nM
S1507-2 [3]
  relative IC50: > 1000 nM
HSC1 [4]
  relative IC50: > 1000 nM
STS26T [5]
  relative IC50: 36.1 nM
HS-PSS [6]
  relative IC50: > 1000 nM
HSC2 [7]
  relative IC50: 8.05 nM
ST8814 [8]
  relative IC50: 7.62 nM
S462
  relative IC50: 4.41 nM
HS-Sch-2
  relative IC50: 3.57 nM
S1507-2 [9]
  relative IC50: 37.8 nM
HSC1 [10]
  relative IC50: 7.32 nM
STS26T [11]
  relative IC50: 36.9 nM
HS-PSS [12]
  relative IC50: 5.73 nM
YST-1
  relative IC50: 2.8 nM

## CCCCCCCCc1ccc(CCC(N)(CO)CO)cc1 [Fingolimod]
HSC2 [1]
  relative IC50: 2220 nM
ST8814 [2]
  relative IC50: 3430 nM
S1507-2 [3]
  relative IC50: 1600 nM
HSC1 [4]
  relative IC50: 1950 nM
STS26T [5]
  relative IC50: 3340 nM
HS-PSS [6]
  relative IC50: 3160 nM
HSC2 [7]
  relative IC50: 2340 nM
ST8814 [8]
  relative IC50: 2770 nM
S462
  relative IC50: 3070 nM
HS-Sch-2
  relative IC50: 2480 nM
S1507-2 [9]
  relative IC50: 2030 nM
HSC1 [10]
  relative IC50: 2150 nM
STS26T [11]
  relative IC50: 2620 nM
HS-PSS [12]
  relative IC50: 1890 nM
YST-1
  relative IC50: 2940 nM

## CCCc1cc(C)[nH]c(=O)c1CNC(=O)c1cc(-c2ccnc(N3CCN(C)CC3)c2)cc2c1cnn2C(C)C [GSK343]
HSC2 [1]
  relative IC50: > 10000 nM
ST8814 [2]
  relative IC50: 3100 nM
S1507-2 [3]
  relative IC50: 2310 nM
HSC1 [4]
  relative IC50: > 10000 nM
STS26T [5]
  relative IC50: 2660 nM
HS-PSS [6]
  relative IC50: 3090 nM
HSC2 [7]
  relative IC50: 1810 nM
ST8814 [8]
  relative IC50: 3200 nM
S462
  relative IC50: 3250 nM
HS-Sch-2
  relative IC50: 3810 nM
S1507-2 [9]
  relative IC50: 2690 nM
HSC1 [10]
  relative IC50: 1520 nM
STS26T [11]
  relative IC50: 3820 nM
HS-PSS [12]
  relative IC50: 2970 nM
YST-1
  relative IC50: 4350 nM

## CC(C)c1cc(-c2n[nH]c(=O)n2-c2ccc3c(ccn3C)c2)c(O)cc1O [Ganetespib]
HSC2 [1]
  relative IC50: 18.5 nM
ST8814 [2]
  relative IC50: 11.5 nM
S1507-2 [3]
  relative IC50: 46.4 nM
HSC1 [4]
  relative IC50: 17.8 nM
STS26T [5]
  relative IC50: 33 nM
HS-PSS [6]
  relative IC50: 37.5 nM
HSC2 [7]
  relative IC50: 17.2 nM
ST8814 [8]
  relative IC50: 18.1 nM
S462
  relative IC50: 25 nM
HS-Sch-2
  relative IC50: 23.2 nM
S1507-2 [9]
  relative IC50: 42.4 nM
HSC1 [10]
  relative IC50: 14.9 nM
STS26T [11]
  relative IC50: 24.4 nM
HS-PSS [12]
  relative IC50: 42.7 nM
YST-1
  relative IC50: 36.8 nM

## Nc1ccn([C@@H]2O[C@H](CO)[C@@H](O)C2(F)F)c(=O)n1 [Gemcitabine]
HSC2 [1]
  relative IC50: 5.47 nM
ST8814 [2]
  relative IC50: 3.86 nM
S1507-2 [3]
  relative IC50: 2.65 nM
HSC1 [4]
  relative IC50: 8.57 nM
STS26T [5]
  relative IC50: 1.22 nM
HS-PSS [6]
  relative IC50: 50.4 nM
HSC2 [7]
  relative IC50: 2 nM
ST8814 [8]
  relative IC50: 4.13 nM
S462
  relative IC50: 0.481 nM
HS-Sch-2
  relative IC50: 2.09 nM
S1507-2 [9]
  relative IC50: 0.876 nM
HSC1 [10]
  relative IC50: 2.2 nM
STS26T [11]
  relative IC50: 1.59 nM
HS-PSS [12]
  relative IC50: 19.9 nM
YST-1
  relative IC50: 8.34 nM

## CC(=O)[C@]1(O)Cc2c(O)c3c(c(O)c2[C@@H](O[C@H]2C[C@H](N)[C@H](O)[C@H](C)O2)C1)C(=O)c1ccccc1C3=O [Idarubicin]
HSC2 [1]
  relative IC50: 204 nM
ST8814 [2]
  relative IC50: 27 nM
S1507-2 [3]
  relative IC50: 54.1 nM
HSC1 [4]
  relative IC50: 107 nM
STS26T [5]
  relative IC50: 10.8 nM
HS-PSS [6]
  relative IC50: 162 nM
HSC2 [7]
  relative IC50: 22.6 nM
ST8814 [8]
  relative IC50: 24.9 nM
S462
  relative IC50: 9.47 nM
HS-Sch-2
  relative IC50: 39.7 nM
S1507-2 [9]
  relative IC50: 25.6 nM
HSC1 [10]
  relative IC50: 19.7 nM
STS26T [11]
  relative IC50: 14.4 nM
HS-PSS [12]
  relative IC50: 103 nM
YST-1
  relative IC50: 8.54 nM

Source: the supplement of paper PMC5579334
